# Molecular target: T1, human tyrosinase (Homo sapiens, UniProt P14679)
# T1 sequence (P14679 19-529): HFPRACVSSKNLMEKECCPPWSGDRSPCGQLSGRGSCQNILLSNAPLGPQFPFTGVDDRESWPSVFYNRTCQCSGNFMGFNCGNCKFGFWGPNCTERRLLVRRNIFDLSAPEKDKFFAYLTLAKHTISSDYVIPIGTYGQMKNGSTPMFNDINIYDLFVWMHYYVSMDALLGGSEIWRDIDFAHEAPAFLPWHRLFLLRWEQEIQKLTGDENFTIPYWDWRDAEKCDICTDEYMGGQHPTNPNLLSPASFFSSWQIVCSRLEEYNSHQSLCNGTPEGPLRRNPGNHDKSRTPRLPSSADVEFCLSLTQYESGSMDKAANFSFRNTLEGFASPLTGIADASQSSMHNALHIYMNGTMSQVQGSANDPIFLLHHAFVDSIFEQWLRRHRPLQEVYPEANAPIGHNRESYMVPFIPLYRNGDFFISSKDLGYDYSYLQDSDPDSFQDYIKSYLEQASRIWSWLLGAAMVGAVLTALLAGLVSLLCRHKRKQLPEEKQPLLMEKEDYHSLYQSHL
# Experiment: Enzyme test: conversion of L-DOPA to L-dopaquinone by human tyrosinase (MBTH, absorption at 490 nm)
# Format: biochemical
# Details: Concentration 100 μg/ml; substrate L-DOPA; read-out: Inhibition (% of control) of tyrosinase activity
# Excerpt: The efficacy of the thiazoles has been verified using an enzyme test by measuring the conversion of L-DOPA to L-dopaquinone by a human tyrosinase. In this method that is known from the literature (Winder, A. J. and Harris H., New assays for the tyrosine hydroxylase and dopa oxidase activities of tyrosinase. Eur. J. Biochem. (1991), 198, 317-26), the reaction product L-dopaquinone is reacted with MBTH (3-methyl-2-benzothiazoline hydrazone) is converted to form a pink-colored substance, the increase of which over time is measured by absorption at 490 nm. In table one, efficacy data for some of the claimed substances are shown by way of example. It may be concluded therefrom that the substances according to the invention are extremely effective pigmentation-inhibiting substances.
row,inhibition at 100 µg/mL,Structure (SMILES)
1,93.1%,Oc1ccc(-c2csc(Nc3ncccn3)n2)c(O)c1 [Compound 1]
2,100%,Oc1ccc(-c2csc(Nc3ccccc3)n2)c(O)c1 [Compound 2]
3,82.9%,Oc1ccc(-c2csc(NN3CCOCC3)n2)c(O)c1 [Compound 24]
4,90.3%,Oc1ccc(-c2csc(N3CCOCC3)n2)c(O)c1 [Compound 25]

# Further lines, the compound ahead of its results:
row,Structure (SMILES),inhibition at 100 µg/mL
1,Oc1ccc(-c2csc(Nc3ncccn3)n2)cc1 [Compound 20],61.3%
2,Oc1ccc(-c2csc(Nc3ccccn3)n2)cc1 [Compound 21],87.6%
3,CN(c1ccccc1)c1nc(-c2ccc(O)cc2)cs1 [Compound 22],87.9%
4,O=C(Nc1nc(-c2ccc(O)cc2O)cs1)c1ccccc1 [Compound 26],100%
5,CCN(CC)CCNc1nc(-c2ccc(O)cc2O)cs1 [Compound 28],80.5%
